In patent US10208021B2, “Substituted tetrahydroisoquinoline compounds as factor XIa inhibitors” (BRISTOL-MYERS SQUIBB COMPANY, priority 2011, dated 2019):
Where a name gives a salt, the structure may show the parent alone.

target: purified human Factor XIa (Homo sapiens (Human), UniProt P03951); assay: Factor XIa chromogenic substrate (S-2366) inhibition assay; format: biochemical; settings: substrate S-2366, Table 1
Method in brief: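 Ki derived from reaction velocities measured in the presence of inhibitor. Purified protease hydrolysed the chromogenic substrate; rate of absorbance change was followed over 20-180 minutes, depending on the protease.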

purified human Factor XIa, sequence (P03951 388-625): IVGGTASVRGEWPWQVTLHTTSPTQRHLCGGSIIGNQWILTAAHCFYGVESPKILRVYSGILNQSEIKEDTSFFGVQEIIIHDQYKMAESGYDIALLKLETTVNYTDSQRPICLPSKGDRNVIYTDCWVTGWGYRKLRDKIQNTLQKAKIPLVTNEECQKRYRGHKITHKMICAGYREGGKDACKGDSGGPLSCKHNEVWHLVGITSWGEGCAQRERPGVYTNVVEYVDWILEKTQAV
purified human Factor XIa, sequence (P03951 19-387 partner): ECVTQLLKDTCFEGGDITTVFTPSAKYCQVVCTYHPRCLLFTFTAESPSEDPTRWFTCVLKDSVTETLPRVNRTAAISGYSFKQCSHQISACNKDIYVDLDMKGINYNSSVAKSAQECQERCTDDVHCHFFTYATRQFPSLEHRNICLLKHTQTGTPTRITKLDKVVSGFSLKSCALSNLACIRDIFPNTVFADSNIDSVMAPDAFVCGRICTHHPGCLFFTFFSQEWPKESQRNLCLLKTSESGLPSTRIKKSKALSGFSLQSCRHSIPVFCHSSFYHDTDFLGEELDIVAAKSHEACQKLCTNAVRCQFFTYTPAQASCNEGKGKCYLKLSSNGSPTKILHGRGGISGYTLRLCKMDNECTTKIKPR

SMILES	Ki
COC(=O)Nc1ccc(NC(=O)C2c3cccc(N4CCC(N5CCCC5)CC4)c3CCN2C(=O)C=Cc2c(-n3cnnn3)ccc(Cl)c2F)cc1 (centres unmarked) [Example 98]	0.632 µM
CCOC(=O)c1ccc(NC(=O)C2c3cccc(N4CCC(N5CCCC5=O)CC4)c3CCN2C(=O)C=Cc2c(-n3cnnn3)ccc(Cl)c2F)cc1 (centres unmarked) [Example 125]	1.01 µM
CCNC(=O)c1ccc(NC(=O)C2c3cccc(N4CCNCC4)c3CCN2C(=O)/C=C/c2cc(Cl)c(F)cc2-n2cnnn2)cc1 (racemic) [Example 71]	0.491 µM
CCOC(=O)c1ccc(NC(=O)[C@H]2c3cccc(N4CCC(N(C)C)CC4)c3CCN2C(=O)/C=C/c2c(-n3cnnn3)ccc(Cl)c2F)cc1 [Example 128]	0.133 µM
CCOC(=O)c1ccc(NC(=O)C2c3cccc(N4CCC(N5CCCC5)CC4)c3CCN2C(=O)C=Cc2c(C(C)=O)ccc(Cl)c2F)cc1 (centres unmarked) [Example 169]	0.517 µM
N#Cc1ccc(Cl)c(F)c1/C=C/C(=O)N1CCc2c(cccc2N2CCC(N3CCCC3)CC2)C1C(=O)Nc1ccc(C(=O)O)cc1 (racemic) [Example 155]	< 0.005 µM
O=C(O)c1ccc(NC(=O)C2c3cccc(N4CCN(C(=O)OCc5ccccc5)CC4=O)c3CCN2C(=O)/C=C/c2c(-n3cnnn3)ccc(Cl)c2F)cc1 (racemic) [Example 52]	< 0.005 µM
COC(=O)Nc1ccc(NC(=O)C2c3cccc(N4CCNCC4)c3CCN2C(=O)/C=C/c2c(-n3cnnn3)ccc(Cl)c2F)cc1 (centres unmarked) [Example 4]	0.0103 µM

Second part, the compound after the results:

Ki	SMILES
0.955 µM	CC(=O)c1ccc(Cl)c(F)c1/C=C/C(=O)N1CCc2c(cccc2N2CCS(=O)(=O)CC2)[C@@H]1C(=O)Nc1ccc(C(=O)O)cc1 [Example 216]
< 0.005 µM	O=C(O)c1ccc(NC(=O)C2c3cccc(N4CCC(N5CCNCC5)CC4)c3CCN2C(=O)/C=C/c2c(C(F)(F)F)ccc(Cl)c2F)cc1 (racemic) [Example 228]
4.62 µM	O=C(NC1CCCNC1)C1c2cccc(N3CCC(N4CCCC4)CC3)c2CCN1C(=O)C=Cc1c(-n2cnnn2)ccc(Cl)c1F (mixture of isomers) [Example 237]
5.74 µM	CCOC(=O)c1ccc(NC(=O)[C@H]2c3cccc(N4CCOCC4)c3CC(C)(C)N2C(=O)/C=C/c2c(-n3cnnn3)ccc(Cl)c2F)cc1 [Example 198]
1.22 µM	CCOC(=O)c1ccc(NC(=O)C2c3cccc(N4CCN(C)CC4)c3CCN2C(=O)C=Cc2c(-n3cnnn3)ccc(Cl)c2F)cc1 (centres unmarked) [compound 28]

same assay, conditions: substrate S-2366, activity ranges, Table A

SMILES	Ki
O=C(O)c1ccc(NC(=O)C2c3cccc(N4CCC(N5CCOCC5)CC4)c3CCN2C(=O)/C=C/c2c(-n3cnnn3)ccc(Cl)c2F)cc1 (racemic) [Example 138]	< 0.005 µM
NC1CCN(c2cccc3c2CCN(C(=O)/C=C/c2c(-n4cnnn4)ccc(Cl)c2F)C3C(=O)Nc2ccc(C(=O)O)cc2)CC1 (racemic) [Example 97]	< 0.005 µM
CC(C)(C)OC(=O)c1ccc(NC(=O)C2c3cccc(N4CCN(C(=O)OC(C)(C)C)CC4=O)c3CCN2C(=O)/C=C/c2c(-n3cnnn3)ccc(Cl)c2F)cc1 (racemic) [Example 55]	0.1 to 0.5 µM
O=C(O)c1ccc(NC(=O)C2c3cccc(N4CCC(c5ccccc5)CC4)c3CCN2C(=O)/C=C/c2c(-n3cnnn3)ccc(Cl)c2F)cc1 (racemic) [Example 95]	< 0.005 µM
CC1(C)CCN(c2cccc3c2CCN(C(=O)/C=C/c2c(-n4cnnn4)ccc(Cl)c2F)C3C(=O)Nc2ccc(C(=O)O)cc2)CC1 (racemic) [Example 117]	< 0.005 µM
CC(C)(C)OC(=O)c1ccc(NC(=O)C2c3cccc(N4CCOCC4)c3CCN2C(=O)/C=C/c2c(-n3cnnn3)ccc(Cl)c2F)cc1 (racemic) [Example 59]	0.005 to 0.01 µM
CC(=O)c1ccc(Cl)c(F)c1C=CC(=O)N1CCc2c(cccc2N2CCC(N3CCCC3)CC2)C1C(=O)Nc1ccc(C(=O)O)cc1 (centres unmarked) [Example 168]	< 0.005 µM
O=C(O)c1ccc(NC(=O)C2c3cccc(N4CCC(N5CCCC5)CC4)c3CCN2C(=O)C=Cc2c(-n3cnnn3)ccc(Cl)c2F)cc1 (centres unmarked) [Example 87]	< 0.005 µM
COc1cccc(NC(=O)c2ccc(NC(=O)C3c4cccc(N5CCNCC5)c4CCN3C(=O)/C=C/c3cc(Cl)c(F)cc3-n3cnnn3)cc2)c1 (racemic) [Example 75]	0.1 to 0.5 µM
CC(=O)Nc1ccc(NC(=O)c2ccc(NC(=O)C3c4cccc(N5CCNCC5)c4CCN3C(=O)/C=C/c3cc(Cl)c(F)cc3-n3cnnn3)cc2)cc1 (racemic) [Example 70]	0.1 to 0.5 µM
O=C(O)c1ccc(NC(=O)C2c3cccc(N4CCC(C(=O)N5CCOCC5)CC4)c3CCN2C(=O)/C=C/c2c(-n3cnnn3)ccc(Cl)c2F)cc1 (racemic) [Example 140]	< 0.005 µM
O=C(O)c1ccc(NC(=O)[C@H]2c3cccc(N4CCC(C(=O)N5CCCC5)CC4)c3CCN2C(=O)/C=C/c2c(-n3cnnn3)ccc(Cl)c2F)cc1 [Example 132]	0.1 to 0.5 µM
CCOC(=O)c1ccc(NC(=O)C2c3cccc(N4CCC(N5CCCC5)CC4)c3CCN2C(=O)/C=C/c2c(C#N)ccc(Cl)c2F)cc1 (racemic) [Example 165]	0.005 to 0.01 µM
O=C(Nc1ccccc1)c1ccc(NC(=O)C2c3cccc(N4CCNCC4)c3CCN2C(=O)/C=C/c2cc(Cl)c(F)cc2-n2cnnn2)cc1 (racemic) [Example 69]	0.1 to 0.5 µM
CCOC(=O)c1ccc(NC(=O)C2c3cccc(N4CCC5(CCN(C)C5=O)CC4)c3CCN2C(=O)C=Cc2c(-n3cnnn3)ccc(Cl)c2F)cc1 (centres unmarked) [Example 110]	0.005 to 0.01 µM
CCOC(=O)c1ccc(NC(=O)C2c3cccc(N4CCOCC4)c3CCN2C(=O)C=Cc2c(-n3cnnn3)ccc(Cl)c2F)cc1 (centres unmarked) [Example 185]	0.005 to 0.01 µM
CC(C)OC(=O)c1ccc(NC(=O)C2c3cccc(N4CCC(N5CCCC5)CC4)c3CCN2C(=O)/C=C/c2c(-n3cnnn3)ccc(Cl)c2F)cc1 (racemic) [Example 122]	< 0.005 µM
CC(C)(C)OC(=O)c1ccc(NC(=O)[C@@H]2c3cccc(N4CCOCC4=O)c3CCN2C(=O)/C=C/c2c(-n3cnnn3)ccc(Cl)c2F)cc1 [Example 50]	0.1 to 0.5 µM
O=C(Nc1ccc(Cl)cc1)C1c2cccc(N3CCC(N4CCCC4)CC3)c2CCN1C(=O)C=Cc1c(-n2cnnn2)ccc(Cl)c1F (centres unmarked) [Example 112]	< 0.005 µM
N#Cc1ccc(Cl)c(F)c1C=CC(=O)N1CCc2c(cccc2N2CCC(N3CCCC3)CC2)C1C(=O)Nc1ccc(C(=O)O)cc1 (centres unmarked) [Example 163]	0.005 to 0.01 µM
COC(=O)N1CCN(c2cccc3c2CCN(C(=O)/C=C/c2c(-n4cnnn4)ccc(Cl)c2F)C3C(=O)Nc2ccc(C#N)cc2)CC1 (centres unmarked) [Example 26]	0.005 to 0.01 µM

The remaining lines, values ahead:

Ki	SMILES
< 0.005 µM	CC1(C)Cc2c(cccc2N2CCCCC2)[C@@H](C(=O)Nc2ccc(C(=O)O)cc2)N1C(=O)/C=C/c1c(-n2cnnn2)ccc(Cl)c1F [Example 195]
0.005 to 0.01 µM	CCOC(=O)c1ccc(NC(=O)[C@@H]2c3cccc(N4CCN(C)CC4=O)c3CCN2C(=O)/C=C/c2c(-n3cnnn3)ccc(Cl)c2F)cc1 [Example 192, (S,E)-Ethyl 4-(2-(3-(3-chloro-2-fluoro-6-(1H-tetrazol-1-yl)phenyl)acryloyl)-5-(4-methyl-2-oxopiperazin-1-yl)-1,2,3,4-tetrahydroisoquinoline-1-carboxamido)benzoate, TFA Salt]
0.005 to 0.01 µM	COC(=O)[C@H]1CC[C@H](NC(=O)C2c3cccc(N4CCC(N5CCCC5)CC4)c3CCN2C(=O)/C=C/c2c(-n3cnnn3)ccc(Cl)c2F)CC1 (mixture of isomers) [Example 232]
< 0.005 µM	O=C(O)c1ccc(NC(=O)C2c3cccc(N4CCC5(CCNC5)CC4)c3CCN2C(=O)/C=C/c2c(C(F)(F)F)ccc(Cl)c2F)cc1 (racemic) [Example 227]
< 0.005 µM	O=C(NC1CCCCC1)C1c2cccc(N3CCC(N4CCCC4)CC3)c2CCN1C(=O)/C=C/c1c(-n2cnnn2)ccc(Cl)c1F (racemic) [Example 239]
0.005 to 0.01 µM	O=C(O)c1ccc(NC(=O)[C@@H]2c3cccc(N4CCCCC4=O)c3CCN2C(=O)/C=C/c2cc(Cl)c(F)cc2-n2cnnn2)cc1 [compound 42]
< 0.005 µM	CC(=O)c1ccc(Cl)c(F)c1/C=C/C(=O)N1CCc2c(cccc2N2CCC(N3CCOCC3)CC2)C1C(=O)Nc1ccc(C(=O)O)cc1 (racemic) [Example 220]
0.005 to 0.01 µM	CC(=O)c1ccc(Cl)c(F)c1/C=C/C(=O)N1CCc2c(cccc2N2CCCCC2=O)[C@@H]1C(=O)Nc1ccc(C(=O)O)cc1 [compound 39]
0.005 to 0.01 µM	CCOC(=O)c1ccc(NC(=O)[C@@H]2c3cccc(N4CCCCC4=O)c3CCN2C(=O)/C=C/c2c(-n3cnnn3)ccc(Cl)c2F)cc1 [compound 45]
0.1 to 0.5 µM	CC(C)(C)OC(=O)CCNC(=O)C1c2cccc(N3CCC(N4CCCC4)CC3)c2CCN1C(=O)/C=C/c1c(-n2cnnn2)ccc(Cl)c1F (racemic) [Example 230]
< 0.005 µM	O=C(O)c1ccc(NC(=O)C2c3cccc(N4CCCNCC4)c3CCN2C(=O)C=Cc2c(-n3cnnn3)ccc(Cl)c2F)cc1 (centres unmarked) [Example 260]
< 0.005 µM	CN(C)CCNC(=O)N1CCCN(c2cccc3c2CCN(C(=O)/C=C/c2c(-n4cnnn4)ccc(Cl)c2F)C3C(=O)Nc2ccc(C(=O)O)cc2)CC1 (racemic) [Example 261]
< 0.005 µM	CC(=O)c1ccc(Cl)c(F)c1/C=C/C(=O)N1CCc2c(cccc2N2CCC(C(=O)N(C)C)CC2)C1C(=O)Nc1ccc(C(=O)O)cc1 (racemic) [Example 218]
< 0.005 µM	CN1CCN(c2cccc3c2CC(C)(C)N(C(=O)/C=C/c2c(-n4cnnn4)ccc(Cl)c2F)[C@@H]3C(=O)Nc2ccc(C(=O)O)cc2)CC1 [Example 201]
0.1 to 0.5 µM	CN1CCN(c2cccc3c2CC(C)(C)N(C(=O)/C=C/c2c(-n4cnnn4)ccc(Cl)c2F)[C@H]3C(=O)Nc2ccc(C(=O)O)cc2)CC1 [Example 202]
0.1 to 0.5 µM	CN1CCN(c2cccc3c2CCN(C(=O)C=Cc2c(-n4cnnn4)ccc(Cl)c2F)C3C(=O)Nc2ccc(C(=O)O)cc2)CC1 (centres unmarked) [compound 30]
< 0.005 µM	CC(=O)c1ccc(Cl)c(F)c1C=CC(=O)N1CCc2c(cccc2N2CCC3(CCN(C)C3=O)CC2)C1C(=O)Nc1ccc(C(=O)O)cc1 (centres unmarked) [Example 222]
< 0.005 µM	CC1(C)Cc2c(cccc2N2CCOCC2)[C@@H](C(=O)Nc2ccc(C(=O)O)cc2)N1C(=O)/C=C/c1c(-n2cnnn2)ccc(Cl)c1F [Example 199]
< 0.005 µM	CC1(O)CCN(c2cccc3c2CCN(C(=O)C=Cc2c(-n4cnnn4)ccc(Cl)c2F)C3C(=O)Nc2ccc(C(=O)O)cc2)CC1 (centres unmarked) [Example 268]
